Molecular target: T1, human KSP motor domain (KSP(367H)) (Homo sapiens, UniProt P52732)
T1 construct: were used to amplify the motor domain and the neck linker region; made in house; host or cells: E. coli BL21 (DE3), vector pRSETa
T1 sequence (P52732 18-359 limits assumed): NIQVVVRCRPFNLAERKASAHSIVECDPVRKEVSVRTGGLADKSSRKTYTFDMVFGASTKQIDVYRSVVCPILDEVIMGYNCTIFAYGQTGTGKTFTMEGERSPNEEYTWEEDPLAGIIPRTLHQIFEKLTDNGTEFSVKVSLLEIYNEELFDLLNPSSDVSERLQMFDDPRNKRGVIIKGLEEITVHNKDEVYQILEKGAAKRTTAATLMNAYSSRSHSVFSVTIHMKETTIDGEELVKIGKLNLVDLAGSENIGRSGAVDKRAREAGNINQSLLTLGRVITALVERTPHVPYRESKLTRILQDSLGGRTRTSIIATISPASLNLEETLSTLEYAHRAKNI
Test: Kinesin ATPase in vitro assay
Format: biochemical
Details: KSP motor domain with microtubules, 1 mM ATP, 23° C.; free phosphate by quinaldine red/ammonium molybdate
Text: I. Kinesin ATPase In Vitro Assay
Cloning and Expression of Human Poly-Histidine Tagged KSP Motor Domain (KSP(367H))
Plasmids for the expression of the human KSP motor domain construct were cloned by PCR using a pBluescript full length human KSP construct (Blangy et al., Cell, vol. 83, pp 1159-1169, 1995) as a template. The N-terminal primer 5′-[…] (SEQ. ID. NO.: 1) and the C-terminal primer 5′-[…] […] (SEQ. ID. NO.: 2) were used to amplify the motor domain and the neck linker region. The PCR products were digested with AseI and XhoI, ligated into the NdeI/XhoI digestion product of pRSETa (Invitrogen) and transformed into E. coli BL21 (DE3).
Cells were grown at 37° C. to an OD600 of 0.5. […]
The kinesin motor domain is incubated with microtubules, 1 mM ATP (1:1 MgCl2: Na-ATP), and compound at 23° C. in buffer containing 80 mM K-HEPES (pH 7.0), 1 mM EGTA, 1 mM DTT, 1 mM MgCl2, and 50 mM KCl. […] Free phosphate from the ATP hydrolysis reaction is measured via a quinaldine red/ammonium molybdate assay by adding 150 μl of quench C buffer containing a 2:1 ratio of quench A:quench B. Quench A contains 0.1 mg/ml quinaldine red and 0.14% polyvinyl alcohol; quench B contains 12.3 mM ammonium molybdate tetrahydrate in 1.15 M sulfuric acid. The reaction is incubated for 10 minutes at 23° C., and the absorbance of the phospho-molybdate complex is measured at […].

SMILES: CN(C(=O)N1CC(c2cc(F)ccc2F)=C[C@@]1(CO)c1ccccc1)[C@H]1CCN(CCC[Si](C)(C)C)C[C@H]1F [Compound 11-1, (2S)-4-(2,5-difluorophenyl)-N-{(3R,4S)-3-fluoro-1-[3-(trimethylsilyl)propyl]piperidin-4-yl}-2-(hydroxymethyl)-N-methyl-2-phenyl-2,5-dihydro-1H-pyrrole-1-carboxamide]
- IC50: ≤ 50 µM

Reference: patent US20080207693A1, “Mitotic Kinesin Inhibitors” (priority 2005, published 2008)
